Data on four compounds can be found in paper PMC3914206.

Holding throughout (assay type): binding
Common to all, as to details: Compound Concentration 10 µM

For test [1], the target named is T1, panel of 442 kinases (Homo sapiens, UniProt P49336).
T1 construct: purchased KINOMEscan
From the text:
(§1) We assessed the selectivity of members of this scaffold using the KINOMEscan methodology across a near comprehensive panel of 442 kinases [[18,27]].

Test [2] addresses T2, panel of 442 kinases (Homo sapiens, UniProt P00533).
T2 construct: purchased KINOMEscan
From the text: as §1

Test [3] deals with T3, panel of 442 kinases (Homo sapiens, UniProt Q9H2X6).
T3 construct: purchased KINOMEscan
T3 sequence (Q9H2X6 whole entry): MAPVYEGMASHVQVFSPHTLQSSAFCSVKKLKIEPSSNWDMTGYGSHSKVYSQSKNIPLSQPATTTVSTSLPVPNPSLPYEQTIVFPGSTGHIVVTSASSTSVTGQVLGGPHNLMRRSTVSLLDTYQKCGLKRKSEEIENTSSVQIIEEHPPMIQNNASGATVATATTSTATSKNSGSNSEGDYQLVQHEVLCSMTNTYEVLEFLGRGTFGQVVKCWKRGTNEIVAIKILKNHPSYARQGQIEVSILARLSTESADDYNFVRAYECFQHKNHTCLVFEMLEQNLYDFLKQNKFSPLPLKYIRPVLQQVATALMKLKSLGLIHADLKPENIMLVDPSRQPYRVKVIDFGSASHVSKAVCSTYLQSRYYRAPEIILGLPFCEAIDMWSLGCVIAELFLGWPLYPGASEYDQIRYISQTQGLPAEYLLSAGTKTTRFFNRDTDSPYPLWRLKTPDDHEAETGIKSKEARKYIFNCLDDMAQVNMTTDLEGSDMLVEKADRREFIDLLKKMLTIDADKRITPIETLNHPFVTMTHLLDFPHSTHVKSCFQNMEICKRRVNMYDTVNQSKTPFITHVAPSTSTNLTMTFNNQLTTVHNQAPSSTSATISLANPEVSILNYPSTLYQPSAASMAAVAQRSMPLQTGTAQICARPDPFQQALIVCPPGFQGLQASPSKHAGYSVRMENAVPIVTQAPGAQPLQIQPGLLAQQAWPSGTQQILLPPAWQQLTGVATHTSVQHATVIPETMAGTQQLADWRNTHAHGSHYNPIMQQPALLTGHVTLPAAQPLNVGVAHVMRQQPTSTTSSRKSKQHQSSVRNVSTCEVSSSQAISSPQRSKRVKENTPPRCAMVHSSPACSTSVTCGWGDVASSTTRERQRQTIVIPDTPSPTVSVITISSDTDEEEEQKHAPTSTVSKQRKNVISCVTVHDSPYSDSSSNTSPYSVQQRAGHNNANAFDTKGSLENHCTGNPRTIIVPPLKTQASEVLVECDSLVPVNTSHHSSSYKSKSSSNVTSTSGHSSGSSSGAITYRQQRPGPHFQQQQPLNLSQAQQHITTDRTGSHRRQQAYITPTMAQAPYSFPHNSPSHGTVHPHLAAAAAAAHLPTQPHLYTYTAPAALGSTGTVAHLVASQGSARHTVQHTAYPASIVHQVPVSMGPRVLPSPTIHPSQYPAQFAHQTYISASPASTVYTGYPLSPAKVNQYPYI
From the text: as §1

In test [4] the target is T4, panel of 442 kinases (Homo sapiens, UniProt P06239).
T4 construct: purchased KINOMEscan
T4 sequence (P06239 whole entry): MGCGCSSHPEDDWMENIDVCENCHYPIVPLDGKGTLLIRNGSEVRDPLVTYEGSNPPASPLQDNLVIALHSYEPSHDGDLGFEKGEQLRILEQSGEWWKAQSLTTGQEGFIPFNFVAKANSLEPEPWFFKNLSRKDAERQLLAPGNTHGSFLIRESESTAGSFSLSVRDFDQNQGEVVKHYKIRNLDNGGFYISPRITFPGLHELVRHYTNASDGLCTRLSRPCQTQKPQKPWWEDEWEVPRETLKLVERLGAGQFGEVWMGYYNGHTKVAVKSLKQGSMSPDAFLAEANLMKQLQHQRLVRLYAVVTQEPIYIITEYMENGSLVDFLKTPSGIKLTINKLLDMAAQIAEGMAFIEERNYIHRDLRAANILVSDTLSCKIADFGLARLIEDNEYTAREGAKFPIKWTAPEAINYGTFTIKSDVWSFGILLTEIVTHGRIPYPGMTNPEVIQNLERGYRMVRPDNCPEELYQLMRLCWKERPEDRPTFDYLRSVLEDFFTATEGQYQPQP
From the text: as §1

Each structure is given as a SMILES string.

T1 sequence (P49336 whole entry): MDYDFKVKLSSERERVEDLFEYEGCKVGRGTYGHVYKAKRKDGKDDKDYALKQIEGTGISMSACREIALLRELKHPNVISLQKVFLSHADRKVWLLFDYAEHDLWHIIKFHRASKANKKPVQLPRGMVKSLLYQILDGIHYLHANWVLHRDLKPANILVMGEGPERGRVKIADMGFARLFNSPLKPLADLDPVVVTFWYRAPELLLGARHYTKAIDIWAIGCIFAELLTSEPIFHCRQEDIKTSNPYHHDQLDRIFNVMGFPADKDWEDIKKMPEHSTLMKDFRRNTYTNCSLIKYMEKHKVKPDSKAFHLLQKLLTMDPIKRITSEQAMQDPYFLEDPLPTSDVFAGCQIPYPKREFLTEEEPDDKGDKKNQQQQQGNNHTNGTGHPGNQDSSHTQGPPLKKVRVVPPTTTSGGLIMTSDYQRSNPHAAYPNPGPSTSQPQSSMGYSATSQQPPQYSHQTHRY
T2 sequence (P00533 25-1210): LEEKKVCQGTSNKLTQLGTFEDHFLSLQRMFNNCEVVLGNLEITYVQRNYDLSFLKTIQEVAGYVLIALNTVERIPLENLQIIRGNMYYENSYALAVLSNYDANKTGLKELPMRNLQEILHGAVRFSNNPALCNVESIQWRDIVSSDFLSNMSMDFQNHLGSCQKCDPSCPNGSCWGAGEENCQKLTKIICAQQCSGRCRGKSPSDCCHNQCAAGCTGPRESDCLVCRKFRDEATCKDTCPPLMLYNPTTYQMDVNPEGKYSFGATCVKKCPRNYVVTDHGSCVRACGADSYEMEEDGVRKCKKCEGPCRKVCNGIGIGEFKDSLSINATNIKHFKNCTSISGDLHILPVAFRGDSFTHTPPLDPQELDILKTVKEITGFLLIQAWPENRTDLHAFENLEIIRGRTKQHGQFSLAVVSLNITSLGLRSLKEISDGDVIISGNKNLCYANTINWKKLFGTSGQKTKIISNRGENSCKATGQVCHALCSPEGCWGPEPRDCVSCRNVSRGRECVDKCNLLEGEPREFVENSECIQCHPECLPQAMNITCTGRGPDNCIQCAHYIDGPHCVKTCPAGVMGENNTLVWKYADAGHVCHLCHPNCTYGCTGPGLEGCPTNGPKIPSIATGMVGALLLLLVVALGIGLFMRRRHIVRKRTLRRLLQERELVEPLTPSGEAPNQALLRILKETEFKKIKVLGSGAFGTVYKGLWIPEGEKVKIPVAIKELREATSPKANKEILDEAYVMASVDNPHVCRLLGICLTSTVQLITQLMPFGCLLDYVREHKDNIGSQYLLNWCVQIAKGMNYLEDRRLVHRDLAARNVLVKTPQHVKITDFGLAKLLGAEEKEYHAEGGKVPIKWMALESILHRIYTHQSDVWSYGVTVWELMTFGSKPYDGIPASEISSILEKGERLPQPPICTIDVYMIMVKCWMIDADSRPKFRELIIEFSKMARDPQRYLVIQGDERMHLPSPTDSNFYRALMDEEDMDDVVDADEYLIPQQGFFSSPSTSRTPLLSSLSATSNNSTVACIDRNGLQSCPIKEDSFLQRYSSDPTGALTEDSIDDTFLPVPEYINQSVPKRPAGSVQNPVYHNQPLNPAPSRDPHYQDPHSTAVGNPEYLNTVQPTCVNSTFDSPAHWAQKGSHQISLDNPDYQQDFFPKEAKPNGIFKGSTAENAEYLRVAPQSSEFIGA

In the case of `CCOc1cc(C(=O)N2CCC(N3CCN(C)CC3)CC2)ccc1Nc1ncc2c(n1)N(C1CCCC1)c1ccccc1C(=O)N2C` [Compound 26], the “KINOMEscan: CDK8” value at panel of 442 kinases [1] was 95. The “KINOMEscan: EGFR” value on panel of 442 kinases [2] worked out at 100. Further, the “KINOMEscan: HIPK2” value on panel of 442 kinases [3] came to 100. Further, the “KINOMEscan: LCK” value on panel of 442 kinases [4] came to 100.
In the case of `COc1cc(C(=O)N2CCC(N3CCN(C)CC3)CC2)ccc1Nc1ncc2c(n1)N1CCc3cccc(c31)C(=O)N2C` [Compound 24], the “KINOMEscan: CDK8” value at panel of 442 kinases [1] is 91. Moreover, the “KINOMEscan: EGFR” value at panel of 442 kinases [2] stood at 74. Moreover, on panel of 442 kinases [3], the “KINOMEscan: HIPK2” value is 88.
On to `COc1cc(C(=O)N2CCC(N3CCN(C)CC3)CC2)ccc1Nc1ncc2c(n1)N(C)c1ccccc1C(=O)N2C` [15 (LRRK2-IN-1)], for which, at panel of 442 kinases [1], the “KINOMEscan: CDK8” value was found to be 100. For the same compound, the “KINOMEscan: EGFR” value at panel of 442 kinases [2] was found to be 84. At panel of 442 kinases [3], the “KINOMEscan: HIPK2” value worked out at 88. Besides, the “KINOMEscan: LCK” value at panel of 442 kinases [4] is 100.
On to `COc1cc(C(=O)N2CCC(N3CCN(C)CC3)CC2)ccc1Nc1ncc2c(n1)N(C1CCCC1)c1ccccc1C(=O)N2C` [Compound 25, 11-cyclopentyl-2-((2-methoxy-4-(4-(4-methylpiperazin-1-yl)piperidine-1-carbonyl)phenyl)amino)-5-methyl-5H-benzo[e]pyrimido[5,4-b][1,4]diazepin-6(11H)-one], for which the “KINOMEscan: CDK8” value at panel of 442 kinases [1] is listed as 100. Also, the “KINOMEscan: EGFR” value at panel of 442 kinases [2] was found to be 89. Besides, at panel of 442 kinases [3], the “KINOMEscan: HIPK2” value was found to be 100. In addition, the “KINOMEscan: LCK” value at panel of 442 kinases [4] is given as 66.
